According to patent US20220296623A1, “REDUCED NICOTINAMIDERIBOSIDES FOR TREATING OR PREVENTING KIDNEY DISEASE” (SOCIETE DES PRODUITS NESTLE S.A., priority 2019, published 2022):
Where a name gives a salt, the structure may show the parent alone.

Key:
[1] = Circulating NAM, NRH and NR after intraperitoneal injection; format: in vivo, mice; conditions: IP 500 mg/kg
Source text: (§1) Levels of NRH and other NAD-related metabolites in biological samples were obtained by using a cold liquid-liquid extraction using a mixture of methanol:water:chloroform in 5:3:5 (v/v), from which the polar phase was recovered for hydrophilic interaction ultra-high performance liquid chromatography mass spectrometry (UHPLC-MS) analysis. The UHPLC consisted of a binary pump, a cooled autosampler, and a column oven (DIONEX Ultimate 3000 UHPLC+ Focused, Thermo Scientific), connected to a triple quadrupole spectrometer (TSQ Vantage, Thermo Scientific) equipped with a heated electrospray ionisation (H-ESI) source. Of each sample, 2 μL were injected into the analytical column (2.1 mm×150 mm, 5 μm pore size, 200 Å HILICON iHILIC®-Fusion(P)), guarded by a pre-column (2.1 mm×20 mm, 200 Å HILICON iHILIC®-Fusion(P) Guard Kit) operating at 35° C. The mobile phase (10 mM ammonium acetate at pH 9, A, and acetonitrile, B) was pumped at 0.25 mL/min flow rate over a linear gradient of decreasing organic solvent (0.5-16 min, 90-25% B), followed by re-equilibration for a total run time of 30 min. The MS operated in positive mode at 3500 V with multiple reaction monitoring (MRM). The software Xcalibur v4.1.31.9 (Thermo Scientific) was used for instrument control, data acquisition and processing. Retention time and mass detection was confirmed by authentic standards.
(§2) The above results prompted us to test whether NRH could act as an effective NAD+ precursor in vivo. For this, we first intraperitoneally (IP) injected mice with either NR or NRH (500 mg/kg).

[2] = parameters: species or system mice; conditions: mouse, in vivo, po
Source text: as §1
Oral administration of NRH led to very similar results to those observed after IP administration. […] In contrast, NR levels were undetectable at 1 h after NR administration. As expected, NR treatment led to large increases in circulating NAM, which where ˜4-fold higher than those observed after NRH treatment.

[3] = Stability of NRH or NR spiked in isolated mouse plasma; format: in vitro ADME; conditions: 2 h of incubation
Source text: as §1
(§3) NR degradation to NAM has been proposed as a limitation for its pharmacological efficacy. To evaluate whether NRH was also susceptible to degradation to NAM, we spiked NRH or NR in isolated mouse plasma. […] We also tested the stability of NRH in other matrixes.

[4] = Stability in FBS supplemented media; format: in vitro ADME
Source text: as §3

[5] = tested on: NAD+ levels in liver, muscle and kidney; experiment: Tissue NAD+ levels after intraperitoneal injection of NR or NRH; format: in vivo, mice; conditions: IP 500 mg/kg, after 1 h
Method: as §2

[6] = tested on: NRK1; experiment: NAD+ levels in primary hepatocytes from control or NRK1 knockout mice; conditions: 1 hour of treatment

NAM levels in circulation [1]: highly increased in circulation | circulating NAM after NR treatment relative to NRH treatment ([2]; C57BI/6NTac, 1 h): ~4 fold | administered compound in plasma [2]: undetectable | compound levels in isolated mouse plasma [3]: decayed in plasma | generation of NAM in isolated mouse plasma [3]: increase in NAM | degradation to NAM in FBS supplemented media [4]: as occurs with NR | NAD+ levels in NRK1KO derived primary hepatocytes [6]: failed to increase NAD+ levels
Compound: NC(=O)c1ccc[n+]([C@@H]2O[C@H](CO)[C@@H](O)[C@H]2O)c1 [NR, 1-b-D-ribofuranosyl-3-pyridinecarboxamide salt, reference compound]
NAD+ levels in kidney [5]: increased NAD+ levels | NAD+ levels in liver [5]: increased NAD+ levels | NAD+ levels in muscle [5]: increased NAD+ levels
